{"source": "patent US4689345A", "about": "“Oxygenated alkyl substituted bicyclo alkanes” (CBD Corporation, priority 1986, dated 1987)", "key": {"[1]": {"system": "androgen receptor", "experiment": "Androgen receptor inhibition, Torulopsis", "type": "binding"}, "[2]": {"system": "progesterone receptor", "type": "binding", "conditions": "Histoplasma"}, "[3]": {"system": "progesterone receptor", "experiment": "Progesterone receptor inhibition, Cryptococci", "type": "binding"}, "[4]": {"system": "fungal androgen receptors", "experiment": "Fungal androgen receptor inhibition, Fusarium", "type": "binding", "excerpt": "(§1) In the second series of experiments using the compound of the invention 2-(5-hydroxyhept-1-yl) bicyclo[3.3.0]octan-7-one {hexahydro-4-(5-hydroxyheptyl)-2-(1H)-pentalenone} upon zeralenone and zearalanol production, zearalenone and zearalanol were chemically obtained from Sigma Chemical Co., St. Louis, Mo."}, "[5]": {"system": "estrogen receptor", "experiment": "Estrogen receptor inhibition, Pseudomonas testosteroni", "type": "binding"}, "[6]": {"system": "estrogen receptor", "experiment": "Estrogen receptor inhibition, Coccodia", "type": "binding"}, "[7]": {"system": "androgen receptor", "experiment": "Androgen receptor inhibition, Fusarium calorum", "type": "binding", "excerpt": "as §1"}, "[8]": {"system": "estrogen receptor", "experiment": "Estrogen receptor inhibition, Actinomyces", "type": "binding"}, "[9]": {"system": "progesterone receptor", "experiment": "Fungal progesterone receptor inhibition, Fusarium", "type": "binding"}, "[10]": {"system": "androgen receptor", "experiment": "Androgen receptor inhibition, Sporotrichum", "type": "binding"}, "[11]": {"system": "progesterone receptor", "experiment": "Progesterone receptor inhibition, Fulsarium gravarium", "type": "binding", "excerpt": "as §1"}, "[12]": {"system": "androgen receptor", "experiment": "Androgen receptor inhibition, Actinomyces", "type": "binding"}, "[13]": {"system": "progesterone receptor", "experiment": "Progesterone receptor inhibition, Pseudomonas testosteroni", "type": "binding"}, "[14]": {"biological_target": "T1, progesterone receptor (Homo sapiens, UniProt P06401)", "T1 construct": "Skin fibroblast tissue lines from surgical explants were obtained; endogenous in cells; host or cells: skin fibroblast lines from surgical explants (keloid, scalp, forearm)", "T1 sequence (P06401 1-933)": "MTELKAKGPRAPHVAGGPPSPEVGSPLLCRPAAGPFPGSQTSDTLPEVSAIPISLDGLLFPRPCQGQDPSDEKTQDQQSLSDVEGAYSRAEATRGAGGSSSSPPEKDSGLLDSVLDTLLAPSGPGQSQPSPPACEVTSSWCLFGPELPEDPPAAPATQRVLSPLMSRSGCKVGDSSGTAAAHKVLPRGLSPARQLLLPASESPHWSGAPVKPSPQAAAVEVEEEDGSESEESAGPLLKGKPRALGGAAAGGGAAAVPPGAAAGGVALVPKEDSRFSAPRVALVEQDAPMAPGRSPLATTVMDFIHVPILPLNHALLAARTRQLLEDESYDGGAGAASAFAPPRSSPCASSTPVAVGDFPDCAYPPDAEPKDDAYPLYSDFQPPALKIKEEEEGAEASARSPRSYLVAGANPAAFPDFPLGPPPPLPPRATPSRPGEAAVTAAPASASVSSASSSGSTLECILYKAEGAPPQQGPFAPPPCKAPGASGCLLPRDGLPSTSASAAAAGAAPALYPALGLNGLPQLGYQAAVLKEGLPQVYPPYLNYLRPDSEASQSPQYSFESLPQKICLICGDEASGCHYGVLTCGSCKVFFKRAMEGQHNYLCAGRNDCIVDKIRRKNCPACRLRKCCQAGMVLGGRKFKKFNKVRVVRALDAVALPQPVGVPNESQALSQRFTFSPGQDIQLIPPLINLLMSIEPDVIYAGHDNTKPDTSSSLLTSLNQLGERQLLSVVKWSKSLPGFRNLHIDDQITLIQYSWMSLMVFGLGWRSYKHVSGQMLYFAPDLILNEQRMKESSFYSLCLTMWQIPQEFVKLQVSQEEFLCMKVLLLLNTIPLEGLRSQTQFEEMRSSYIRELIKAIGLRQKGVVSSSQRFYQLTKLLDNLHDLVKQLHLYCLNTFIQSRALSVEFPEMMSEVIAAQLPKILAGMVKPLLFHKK", "experiment": "Progesterone receptor inhibition in skin/tissue fibroblast lines", "type": "cell-based", "conditions": "DHT:compound 1:1,000", "procedure": "Explants of both normal and keloid skin and tissue fibroblast lines were established.\nHormonal receptor analyses on these tissues were performed by the method of Griffith et al., Journal of Clinical Investigation, Vol. 57, page 1340 (1978)."}}, "note": "“And” between values parts separate entries of the source, which are not always exact repeats. Equal entries are not always repeated. Where two headings read alike, the source gives them in different places.", "data": [{"smiles": "CCC(O)CCCCC1CCC2CC(=O)CC12", "note": "(stereo not shown) [Compound IV]", "values": [{"measurement": "% Androgen Receptor Inhibition", "setting": "[1]", "value": 77, "unit": "%"}, {"measurement": "% Progesterone Receptor Inhibition", "setting": "[2]", "value": 0, "unit": "%"}, {"measurement": "% Progesterone Receptor Inhibition", "setting": "[3]", "value": 4, "unit": "%"}, {"measurement": "fungal androgen receptors blocked", "setting": "[4]; DHT:compound 1:1,000", "value": "9-83%"}, {"measurement": "% Androgen Receptor Inhibition", "setting": "[4]; fungal hormone Zeralanol", "value": 84, "unit": "%"}, {"measurement": "% Androgen Receptor Inhibition", "setting": "[4]; fungal hormone Zeralenone", "value": 79, "unit": "%"}, {"measurement": "blocking of interaction of fungal hormone and its hormonal receptors", "setting": "[4]; hormone:anti-androgen 1:1 to 1:1,000", "value": "26-90%"}, {"measurement": "% Estrogen Receptor Inhibition", "setting": "[5]; strain 1", "value": 0, "unit": "%"}, {"measurement": "% Estrogen Receptor Inhibition", "setting": "[5]; strain 2", "value": 0, "unit": "%"}, {"measurement": "% Estrogen Receptor Inhibition", "setting": "[5]; strain 3", "value": 0, "unit": "%"}, {"measurement": "% Estrogen Receptor Inhibition", "setting": "[5]; strain 4", "value": 0, "unit": "%"}, {"measurement": "% Estrogen Receptor Inhibition", "setting": "[6]", "value": 0, "unit": "%"}, {"measurement": "% Androgen Receptor Inhibition", "setting": "[7]; DHT:anti-androgen 1:1", "value": 29, "unit": "%"}, {"measurement": "% Androgen Receptor Inhibition", "setting": "[7]; DHT:anti-androgen 1:10", "value": 37, "unit": "%"}, {"measurement": "% Androgen Receptor Inhibition", "setting": "[7]; DHT:anti-androgen 1:100", "value": 79, "unit": "%"}, {"measurement": "% Androgen Receptor Inhibition", "setting": "[7]; DHT:anti-androgen 1:1,000", "value": 90, "unit": "%"}, {"measurement": "% Estrogen Receptor Inhibition", "setting": "[8]", "value": 0, "unit": "%"}, {"measurement": "% Progesterone Receptor Inhibition", "setting": "[9]; fungal hormone Zeralanol", "value": 0, "unit": "%"}, {"measurement": "% Progesterone Receptor Inhibition", "setting": "[9]; fungal hormone Zeralenone", "value": 0, "unit": "%"}, {"measurement": "% Androgen Receptor Inhibition", "setting": "[10]", "value": 29, "unit": "%"}, {"measurement": "% Progesterone Receptor Inhibition", "setting": "[11]; DHT:anti-androgen 1:1", "value": 1, "unit": "%"}, {"measurement": "% Progesterone Receptor Inhibition", "setting": "[11]; DHT:anti-androgen 1:10", "value": 3, "unit": "%"}, {"measurement": "% Progesterone Receptor Inhibition", "setting": "[11]; DHT:anti-androgen 1:100", "value": 6, "unit": "%"}, {"measurement": "% Progesterone Receptor Inhibition", "setting": "[11]; DHT:anti-androgen 1:1,000", "value": 4, "unit": "%"}, {"measurement": "% Androgen Receptor Inhibition", "setting": "[12]", "value": 90, "unit": "%"}, {"measurement": "% Progesterone Receptor Inhibition", "setting": "[13]; strain 1", "value": 0, "unit": "%"}, {"measurement": "% Progesterone Receptor Inhibition", "setting": "[13]; strain 2", "value": 0, "unit": "%"}, {"measurement": "% Progesterone Receptor Inhibition", "setting": "[13]; strain 3", "value": 0, "unit": "%"}, {"measurement": "% Progesterone Receptor Inhibition", "setting": "[13]; strain 4", "value": 0, "unit": "%"}]}, {"smiles": "CCC(CCCCC1CCC2CC(=O)CC12)OC", "note": "(stereo not shown) [Compound V, 2-(5-Methoxyhept-1-yl)bicyclo[3.3.0]octan-7-one]", "values": [{"measurement": "interference with progesterone receptors", "setting": "[14]; more than 400 experiments", "value": "without significant interference"}, {"measurement": "% Progesterone Receptor Inhibition", "setting": "[14]; forearm", "value": 4, "unit": "%"}, {"measurement": "% Progesterone Receptor Inhibition", "setting": "[14]; keloid", "value": 0, "unit": "%"}, {"measurement": "% Progesterone Receptor Inhibition", "setting": "[14]; keloid, listed as 2-(5-methoxyhept-1-yl)bicyclo[3.3.0]octan-7-one", "value": "no measurable"}, {"measurement": "% Progesterone Receptor Inhibition", "setting": "[14]; scalp", "value": "7% and 0% and 3%"}]}]}
